System: Aβ1-42-injected mice (short-term spatial memory)
Assay: Alzheimer's disease mouse model using intrahippocampal injection of oligomers of amyloid beta; forced alternation Y-maze test
Assay type: in vivo, C57BL6 mice
Conditions: for Cumulative duration (sec) in the new arm of the Y-maze: Aβ1-42 (2 μL/side, 100 μM) injected mice, n = 12, daily treatment, Compounds 5 mg/kg p.o., Donepezil 1 mg/kg i.p., group mean, Aβ1-42 + vehicle group 78.9, sham 115.5
[1] = compared to Aβ1-42-injected, vehicle treated mice (group ID 2), 5 mg/kg p.o. daily

Method: This study evaluated the cognitive functions of the mice after a chronic administration of the compounds, after the ApO injury.
The forced alternation Y-maze test relies on the natural tendency of rodents to explore new environments and was used to evaluate short-term spatial memory and exploratory behavior of injured mice.
18-month-old male C57BL6 mice (Janvier Labs) were housed for acclimatation for 1 week in Neuro-Sys facilities and were maintained in a reversed 12 h light-dark cycle. The animals were group-housed (2-4 animals per cage) and maintained in room with controlled temperature (21-22° C.) and hygrometry (40-60%) and with food and water available ad libitum.
After one week of acclimatization, all the mice were subjected to a bilateral hippocampal stereotaxic surgery determined relative to the bregma according to the Paxinos and Franklin's mouse brain atlas(Yeung et al. 2020).
The Aβ1-42 preparation were done following the procedure described by Callizot (Callizot et al. 2013). Briefly, Aβ1-42 peptide (Bachem, 1071428, CAS #107761-42-2) was dissolved in the vehicle (0.5% Methylcellulose in water (w/v)), at an initial concentration of 100 μM. This solution was gently agitated for 3 days at 37° C. in the dark.
After agitation, the Aβ1-42 preparation were bilaterally injected into the stratum oriens, striatum pyramidal and striatum radiatum of the CA1 area of the hippocampus at three different depths within the CA1 region. Stereotaxic bilateral administration of 2 μL/side of Aβ1-42 preparation (100 μM, containing ˜15 mol/L of oligomers precisely measured by automatic WB), or vehicle, were bilaterally injected with a Hamilton syringe in the CA 1 area of the hippocampus (0.2 μL/min with an Elite Nanomite syringe pump).
All treatments started the day before the stereotaxic injections of A31-42 and were administrated daily until the last day of the experiment at which point different tissue samples were collected.
Test compounds were administered by oral gavage (p.o.).
Preparation with vehicle 1: The required amount of the test compound was weighted and placed in a glass tube. The compound was dissolved in 0.5% Methylcellulose in water (w/v) corresponding to 100% of the final volume and vortexed. The formulation (glass vial) was placed in an ultrasonic bath for 30 min.
Preparation with vehicle 2: The required amount of the test compound was weighted and placed in a glass tube. The compound was dissolved in a volume PEG200 corresponding to 25% of the final volume (at 4× concentration). The preparation was aliquoted in tubes protected from light and stored at 4° C. Before administration, a volume of MC (0.5%, w/v in sterile water) corresponding to 75% of the final volume (for 1× concentration) was added to the preparation and vortexed. The formulation (glass vial) was placed in an ultrasonic bath for homogenization. The glass vial containing the preparation was kept under agitation and protected from light until administration.
The Y-maze was used to assess short term memory (working memory) in mice. Spatial reference memory, which is underlined by the hippocampus, was tested by placing the test mice into the Y-maze with one arm closed off during training. After an intertrial interval, the mouse should remember which arm it has not explored previously and should visit this arm more often (Kraeuter, Guest, and Samyai 2019).

Structure (SMILES) | Cumulative duration (sec) in the new arm of the Y-maze [s] | Effect on short-term spatial memory (Y-maze), day 7 post-surgery [1] | Effect on short-term spatial memory (Y-maze), day 14 post-surgery (day 14 post-surgery, compared to Aβ1-42-injected, vehicle treated mice (group ID 2), 5 mg/kg p.o. daily)
CN(C)S(=O)(=O)C1CN(c2ccc3cn(-c4ccccc4)nc3n2)C1 [Compound 66, N,N-dimethyl-1-(2-phenyl-2H-pyrazolo[3,4-b]pyridin-6-yl)azetidine-3-sulfonamide] | 104.4 | significant beneficial effects | –
CN(C)S(=O)(=O)C1CN(c2cc3nn(-c4ccc(F)cc4)cc3cn2)C1 [Compound 14, 1-(2-(4-fluorophenyl)-2H-pyrazolo[4,3-c]pyridin-6-yl)-N,N-dimethylazetidine-3-sulfonamide] | 112.5 | significant beneficial effects | significant beneficial effects

From US20250304575A1, “COMPOUNDS AND PHARMACEUTICAL COMPOSITIONS THEREOF FOR THE TREATMENT OF NEURODEGENERATIVE DISORDERS” (Galapagos NV, priority 2022, published 2025)
